System: MDA-MB-468 spheroids with HUVEC/MSC, viability
Experiment: Anticancer human tumor MDA-MB-468 cell line growth inhibition [PI3K];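 also: spheroids exposed to agents for seven days before readout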;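 as to viability, T/C: 100% = DMSO vehicle control viability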
Conditions: for IC50: curve of first compound; for viability, T/C: stronger effect = lower value
In short: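 Stroma-containing spheroids: tumor line, pooled-donor HUVEC, hMSC. Treatments: targeted agents with PI3K inhibitors. Dosing: clinically relevant, half-log spacing, 10 microM ceiling without known Cmax. Read-out: cell viability.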

[1] = second compound 0.00316 µM, first compound 0.0316 µM
[2] = second compound 0.00316 µM, first compound 0.1 µM
[3] = second compound 0.00316 µM, first compound 0.316 µM
[4] = second compound 0.00316 µM, first compound 1 µM
[5] = second compound 0.00316 µM, first compound 3.16 µM
[6] = second compound 0.00316 µM, first compound 10 µM
[7] = second compound 0.01 µM, first compound 0.0316 µM
[8] = second compound 0.01 µM, first compound 0.1 µM
[9] = second compound 0.01 µM, first compound 0.316 µM
[10] = second compound 0.01 µM, first compound 1 µM
[11] = second compound 0.01 µM, first compound 3.16 µM
[12] = second compound 0.01 µM, first compound 10 µM
[13] = second compound 0.0316 µM, first compound 0.0316 µM
[14] = second compound 0.0316 µM, first compound 0.1 µM
[15] = second compound 0.0316 µM, first compound 0.316 µM
[16] = second compound 0.0316 µM, first compound 1 µM
[17] = second compound 0.0316 µM, first compound 3.16 µM
[18] = second compound 0.0316 µM, first compound 10 µM
[19] = second compound 0.1 µM, first compound 0.0316 µM
[20] = second compound 0.1 µM, first compound 0.1 µM
[21] = second compound 0.1 µM, first compound 0.316 µM
[22] = second compound 0.1 µM, first compound 1 µM
[23] = second compound 0.1 µM, first compound 3.16 µM
[24] = second compound 0.1 µM, first compound 10 µM
[25] = second compound 0.316 µM, first compound 0.0316 µM
[26] = second compound 0.316 µM, first compound 0.1 µM
[27] = second compound 0.316 µM, first compound 0.316 µM
[28] = second compound 0.316 µM, first compound 1 µM
[29] = second compound 0.316 µM, first compound 3.16 µM
[30] = second compound 0.316 µM, first compound 10 µM
[31] = second compound 1 µM, first compound 0.0316 µM
[32] = second compound 1 µM, first compound 0.1 µM
[33] = second compound 1 µM, first compound 0.316 µM
[34] = second compound 1 µM, first compound 1 µM
[35] = second compound 1 µM, first compound 3.16 µM
[36] = second compound 1 µM, first compound 10 µM

Compound: CC(C)NCC(C(=O)N1CCN(c2ncnc3c2C(C)CC3O)CC1)c1ccc(Cl)cc1 (stereo unspecified) + COc1c(OCCCN2CCOCC2)ccc2c3n(c(=NC(=O)c4cnc(N)nc4)nc12)CCN3
- IC50 (second compound 0.00316 µM): 0.91 µM
- IC50 (second compound 0.01 µM): 0.762 µM
- IC50 (second compound 0.0316 µM): 0.711 µM
- IC50 (second compound 0.1 µM): 0.219 µM
- IC50 (second compound 0.316 µM): < 0.0316 µM
- IC50 (second compound 1 µM): < 0.0316 µM
- viability, T/C [1]: 89.4%
- viability, T/C [2]: 79.2%
- viability, T/C [3]: 70.6%
- viability, T/C [4]: 47.7%
- viability, T/C [5]: 31.4%
- viability, T/C [6]: 24.2%
- viability, T/C [7]: 83.2%
- viability, T/C [8]: 81.3%
- viability, T/C [9]: 65.4%
- viability, T/C [10]: 44.5%
- viability, T/C [11]: 31.7%
- viability, T/C [12]: 23.6%
- viability, T/C [13]: 76.3%
- viability, T/C [14]: 68.5%
- viability, T/C [15]: 66.4%
- viability, T/C [16]: 42.3%
- viability, T/C [17]: 28.9%
- viability, T/C [18]: 20.2%
- viability, T/C [19]: 57.4%
- viability, T/C [20]: 55.2%
- viability, T/C [21]: 49.1%
- viability, T/C [22]: 34.7%
- viability, T/C [23]: 27.1%
- viability, T/C [24]: 14.7%
- viability, T/C [25]: 27.1%
- viability, T/C [26]: 27%
- viability, T/C [27]: 24.5%
- viability, T/C [28]: 21.2%
- viability, T/C [29]: 15.1%
- viability, T/C [30]: 9.47%
- viability, T/C [31]: 4.25%
- viability, T/C [32]: 3.87%
- viability, T/C [33]: 2.81%
- viability, T/C [34]: 3.58%
- viability, T/C [35]: 3.71%
- viability, T/C [36]: 2.69%

Compound: CCN1CCN(Cc2ccc(Nc3ncc(F)c(-c4cc(F)c5nc(C)n(C(C)C)c5c4)n3)nc2)CC1 + COc1c(OCCCN2CCOCC2)ccc2c3n(c(=NC(=O)c4cnc(N)nc4)nc12)CCN3
- IC50 (second compound 0.00316 µM): > 1 µM
- IC50 (second compound 0.01 µM): > 1 µM
- IC50 (second compound 0.0316 µM): > 1 µM
- IC50 (second compound 0.1 µM): > 1 µM
- IC50 (second compound 0.316 µM): < 0.00316 µM
- IC50 (second compound 1 µM): < 0.00316 µM
- viability, T/C (second compound 0.00316 µM, first compound 0.00316 µM): 96.9%
- viability, T/C (second compound 0.00316 µM, first compound 0.01 µM): 90.8%
- viability, T/C [1]: 88.2%
- viability, T/C [2]: 96.8%
- viability, T/C [3]: 99.5%
- viability, T/C [4]: 69.9%
- viability, T/C (second compound 0.01 µM, first compound 0.00316 µM): 85.3%
- viability, T/C (second compound 0.01 µM, first compound 0.01 µM): 88.8%
- viability, T/C [7]: 82%
- viability, T/C [8]: 88.8%
- viability, T/C [9]: 84.2%
- viability, T/C [10]: 54.4%
- viability, T/C (second compound 0.0316 µM, first compound 0.00316 µM): 77%
- viability, T/C (second compound 0.0316 µM, first compound 0.01 µM): 72.2%
- viability, T/C [13]: 77.5%
- viability, T/C [14]: 73.6%
- viability, T/C [15]: 81.4%
- viability, T/C [16]: 66.1%
- viability, T/C (second compound 0.1 µM, first compound 0.00316 µM): 56.6%
- viability, T/C (second compound 0.1 µM, first compound 0.01 µM): 72.4%
- viability, T/C [19]: 61.9%
- viability, T/C [20]: 59%
- viability, T/C [21]: 64%
- viability, T/C [22]: 40.3%
- viability, T/C (second compound 0.316 µM, first compound 0.00316 µM): 26.9%
- viability, T/C (second compound 0.316 µM, first compound 0.01 µM): 25.1%
- viability, T/C [25]: 28.1%
- viability, T/C [26]: 29.9%
- viability, T/C [27]: 31.7%
- viability, T/C [28]: 24.4%
- viability, T/C (second compound 1 µM, first compound 0.00316 µM): 4.09%
- viability, T/C (second compound 1 µM, first compound 0.01 µM): 4.14%
- viability, T/C [31]: 2.96%
- viability, T/C [32]: 4.33%
- viability, T/C [33]: 6.64%
- viability, T/C [34]: 9.9%

Compound: Cn1ncc(Cl)c1-c1cc(C(=O)NC(CN)Cc2cccc(F)c2)sc1Cl (stereo unspecified) + COc1c(OCCCN2CCOCC2)ccc2c3n(c(=NC(=O)c4cnc(N)nc4)nc12)CCN3
- IC50 (second compound 0.00316 µM): 0.331 µM
- IC50 (second compound 0.01 µM): 0.236 µM
- IC50 (second compound 0.0316 µM): 0.152 µM
- IC50 (second compound 0.1 µM): < 0.0316 µM
- IC50 (second compound 0.316 µM): < 0.0316 µM
- IC50 (second compound 1 µM): < 0.0316 µM
- viability, T/C [1]: 78.5%
- viability, T/C [2]: 66.2%
- viability, T/C [3]: 50.1%
- viability, T/C [4]: 36.1%
- viability, T/C [5]: 25.3%
- viability, T/C [6]: 17.2%
- viability, T/C [7]: 71.8%
- viability, T/C [8]: 64.2%
- viability, T/C [9]: 42.7%
- viability, T/C [10]: 33.2%
- viability, T/C [11]: 22.9%
- viability, T/C [12]: 14.6%
- viability, T/C [13]: 66.5%
- viability, T/C [14]: 58.7%
- viability, T/C [15]: 37.2%
- viability, T/C [16]: 28.5%
- viability, T/C [17]: 22.1%
- viability, T/C [18]: 12.1%
- viability, T/C [19]: 49.6%
- viability, T/C [20]: 40%
- viability, T/C [21]: 33.9%
- viability, T/C [22]: 25.4%
- viability, T/C [23]: 17.5%
- viability, T/C [24]: 7.31%
- viability, T/C [25]: 25.1%
- viability, T/C [26]: 21.1%
- viability, T/C [27]: 20.4%
- viability, T/C [28]: 14.9%
- viability, T/C [29]: 12.7%
- viability, T/C [30]: 4.16%
- viability, T/C [31]: 3.44%
- viability, T/C [32]: 3.28%
- viability, T/C [33]: 3.02%
- viability, T/C [34]: 3.44%
- viability, T/C [35]: 3.8%
- viability, T/C [36]: 1.32%
